This is an account of results in patent US20090155247A1, “Methods of Using Death Receptor Agonists and EGFR Inhibitors” (priority 2005, published 2009).

The test system of this assay is H460 non-small lung cancer cells. Kind of assay: Growth of H460 tumor xenografts in vivo. The settings on record: H460 cells injected subcutaneously in mice; compared with vehicle-treated mice; treatments as provided in FIG. 6. The method, then:
Mice were injected subcutaneously with H460 non-small lung cancer cells (ATCC) (5 million cells per mouse).

Take “Apo2L/TRAIL: Apo2L/TRAIL polypeptide consisting of amino acids 114-281 of FIG. 1”: the tumor growth entry is on record as “markedly delayed tumor growth”. Under `C#Cc1cccc(Nc2ncnc3cc(OCCOC)c(OCCOC)cc23)c1` [Tarceva™, N-(3-ethynylphenyl)-6,7-bis(2-methoxyethoxy)-4-quinazolinamine] stands “markedly delayed tumor growth”.
